Patent US7205394B2, “Clathrate of azithromycin hydrate with 1,2-propyleneglycol, method for the manufacture thereof and pharmaceutical composition comprising same” (Hanmi Pharm. Co., Ltd., priority 2001, dated 2007)
Where two headings read alike, the source gives them in different places.

What was measured:
rat = conditions: oral administration in rat; cited from earlier work
[1] = Hygroscopic properties: exposure to relative humidity, water content by Karl Fischer method; assay type: physicochemical; conditions: for Found-Calculated (Difference, %) / Range of Difference (%) / Water content, relative humidity 25% / Water content, relative humidity 50% / Water content, relative humidity 75% / Water content, relative humidity 100%: 7 days; for Found-Calculated (Difference, %) / Range of Difference (%): relative humidity 25-100%; for Found-Calculated (Difference, %) (number in parenthesis) / Range of Difference (%) (number in parenthesis): after 3 days at the corresponding relative humidity; for Water content at onset: before exposure, 7-day series; for Water content at onset / Water content, relative humidity 25% / Water content, relative humidity 50% / Water content, relative humidity 75% / Water content, relative humidity 100%: Karl Fischer; for Water content at onset (number in parenthesis): parenthesis = 3-day series; for Water content, relative humidity 50% (number in parenthesis) / Water content, relative humidity 75% (number in parenthesis) / Water content, relative humidity 100% (number in parenthesis) / Water content, relative humidity 25% (33%) (number in parenthesis): after 3 days; for Water content, relative humidity 25% (33%) (number in parenthesis): relative humidity (33%); for Calculated water content (%): theoretical, for (1) based on m = 1.5 and n = 0.30 in formula (I)
Method: Also, the hygroscopic properties of each of the compound obtained in Example 1 (1), azithromycin dihydrate (2), monohydrate (3), and anhydride (4) were determined by exposing each sample to a relative humidity of each 25%, 50%, […] thereof by the Karl Fischer method.

[2] = prior art forms, background section, cited from earlier work

## CC(O)CO (centres unmarked) [1,2-propyleneglycol]
rat
  LD50: 25 mL/kg

## CC[C@H]1OC(=O)[C@H](C)[C@@H](O[C@H]2C[C@@](C)(OC)[C@@H](O)[C@H](C)O2)[C@H](C)[C@@H](O[C@@H]2O[C@H](C)C[C@H](N(C)C)[C@H]2O)[C@](C)(O)C[C@@H](C)CN(C)[C@H](C)[C@@H](O)[C@]1(C)O [(3), azithromycin monohydrate]
[1]; monohydrate
  Found-Calculated (Difference, %): +1~+3.94%
  Range of Difference (%): 3.94%
  Found-Calculated (Difference, %) (number in parenthesis): (−0.05~+4.84) %
  Range of Difference (%) (number in parenthesis): 4.9%
  Water content at onset: 2.30%
  Water content at onset (number in parenthesis): 3.2%
  Water content, relative humidity 25%: 3.35%
  Water content, relative humidity 50%: 5.13%
  Water content, relative humidity 50% (number in parenthesis): 5.6%
  Water content, relative humidity 75%: 5.41%
  Water content, relative humidity 75% (number in parenthesis): 6.6%
  Water content, relative humidity 100%: 6.29%
  Water content, relative humidity 100% (number in parenthesis): 7.2%
  Water content, relative humidity 25% (33%) (number in parenthesis): 2.3%
  Calculated water content (%): 2.35%

## CC[C@H]1OC(=O)[C@H](C)[C@@H](O[C@H]2C[C@@](C)(OC)[C@@H](O)[C@H](C)O2)[C@H](C)[C@@H](O[C@@H]2O[C@H](C)C[C@H](N(C)C)[C@H]2O)[C@](C)(O)C[C@@H](C)CN(C)[C@H](C)[C@@H](O)[C@]1(C)O [(2), azithromycin dihydrate]
[2]; dihydrate
  Hygroscopic property (in words): less hydroscopic than the monohydrate
[1]; dihydrate
  Found-Calculated (Difference, %): −0.4~+1.51%
  Range of Difference (%): 1.91%
  Found-Calculated (Difference, %) (number in parenthesis): (−2.1~+0.6) %
  Range of Difference (%) (number in parenthesis): 2.7%
  Water content at onset: 4.58%
  Water content at onset (number in parenthesis): 4.1%
  Water content, relative humidity 25%: 4.20%
  Water content, relative humidity 50%: 4.25%
  Water content, relative humidity 50% (number in parenthesis): 4.6%
  Water content, relative humidity 75%: 5.10%
  Water content, relative humidity 75% (number in parenthesis): 4.6%
  Water content, relative humidity 100%: 6.11%
  Water content, relative humidity 100% (number in parenthesis): 5.2%
  Water content, relative humidity 25% (33%) (number in parenthesis): 2.5%
  Calculated water content (%): 4.60%

## CC[C@H]1OC(=O)[C@H](C)[C@@H](O[C@H]2C[C@@](C)(OC)[C@@H](O)[C@H](C)O2)[C@H](C)[C@@H](O[C@@H]2O[C@H](C)C[C@H](N(C)C)[C@H]2O)C(C)(O)C[C@H](C)CN(C)[C@H](C)[C@@H](O)[C@]1(C)O (some centres unmarked) [(4), 9-deoxo-9a-aza-9a-methyl-9a-homoerythromycin A]
[2]
  Hygroscopic property (in words): highly hygroscopic
[1]
  Found-Calculated (Difference, %): +1.11~+7.00%
  Range of Difference (%): 7.00%
  Water content at onset: 0.22%
  Water content, relative humidity 25%: 1.11%
  Water content, relative humidity 50%: 2.85%
  Water content, relative humidity 75%: 4.33%
  Water content, relative humidity 100%: 7.00%
  Calculated water content (%): 0.00%
